From patent US11324798B2, “Materials and methods for treatment of inflammation” (CYTOGEL PHARMA, LLC, priority 2010, dated 2022)
Entries after “also recorded” stand apart in the source; their conditions may differ.

Columns and labels:
[1] = tested on: mustard oil-induced acute neurogenic inflammation in the mouse ear; assay: Filtered and non-filtered CYT-1010 on 5% mustard oil-induced acute neurogenic ear swelling in mice (Example 4); assay type: in vivo
Method: Stock solution of the 100 μg/ml concentration of CYT-1010 (5.5 ml) was prepared fresh every experimental day with 20% hydroxypropyl-βcyclodextrin (HPCD) dissolved in sterile distilled water, shaken properly and sonicated. The vehicle was 20% HPCD dissolved in sterile distilled water. Further dilutions of the compound for the smaller administered doses were made with this vehicle. The applied concentrations were filtered through a 0.2 μm sterile teflon filter. […] The lower concentrations looked clear immediately. Non-filtered solutions were administered in the same concentrations in the parallel groups for comparison. Three doses of both the filtered and non-filtered CYT-1010 solutions (1, 10 and 100 μg/kg; 0.1 ml/10 g from the 0.1, 1 and 10 μg/ml solutions) were administered i.v. 5 min before the induction of the inflammation. Animals of the control group were treated with the same volume of the HPCD after or without the same filtration procedure.
Mice were anaesthesized with urethane (1.2 g/kg i.p.) to achieve a long-lasting deep anaesthesia and minimize respiratory depression. Ten μl of 5% mustard oil dissolved in paraffin oil was smeared on both sides of both ears. Mustard oil in this concentration selectively activates Transient Receptor Potential A1 (TRPA1) on capsaicin-sensitive peptidergic sensory nerves and induces the release of sensory neuropeptides (Banvolgyi et al., 2004). The released calcitonin gene-related peptide (CGRP) and tachykinins such as substance P (SP) in the innervated area evoke vasodilatation and plasma protein extravasation collectively called acute neurogenic inflammation (Helyes et al., 1997, 2001, 2006; Borzsei et a., 2008).
CYT-1010 (1, 10 and 100 μg/kg; 0.1 ml/10 g from the 0.1, 1, 10 μg/ml solutions) was administered i.v. 5 min before the induction of the inflammation by mustard oil smearing. Mice in the control group were treated with the same volume of the vehicle, 20% HPCD dissolved in sterile distilled water
There were 8 mice in each experimental group, and 9 in the 1 μg/kg filtered CYT-1010 dose group […].
65 male CD1 mice (25-35 g) were divided into 8 experimental groups: Group 1: non-filtered vehicle-treated controls (n=8); Group 2: non-filtered 1 μg/kg CYT-1010 (n=8); Group 3: non-filtered 10 μg/kg CYT-1010 (n=8); Group 4: non-filtered 100 μg/kg CYT-1010 (n=8); Group 5: filtered vehicle-treated controls (n=8); Group 6: filtered 1 μg/kg CYT-1010 (n=9); Group 7: filtered 10 μg/kg CYT-1010 (n=8); and Group 8: filtered 100 μg/kg CYT-1010 (n=8).
This study was undertaken in blocks with 16-17 mice per occasion. The whole set of data was obtained during 4 days (12, 13, 16, 22 Apr. 2010). There were 2 or 3 solvent-treated rats every day and the remaining 12 animals were randomised to receive each treatment.
The diameter of the ear was measured with an engineers' micrometer before the treatment and 4 times during the 3 h-examination period (20 min, 1 h, 2 h and 3 h). Edema was expressed in % compared to the initial control values (Banvolgyi et al., 2004; Borzsei et al., 2008). The compound was administered i.v. 5 min before mustard oil smearing in 3 doses (1, 10, 100 μg/kg) in separate groups after sterile filtration or without filtration. Animals of the control group were treated with the same volume of the vehicle
Results are expressed as the mean±s.e.m. Statistical significance was performed with one-way ANOVA followed by Dunnett's post-hoc test (modified t-test) when the data of the CYT-1010-treated groups were compared to the respective vehicle-treated controls at certain time points. The areas under the time-dependent percentage ear swelling curves (AUC) were also calculated and analyzed with the same statistics to compare the whole edema responses of the CYT-1010-treated mice during the 3 h-experimental period to the respective control group. *p<0.05 was considered to be significant. […]

[2] = Survival of anaesthetised mice after i.v. CYT-1010 injection; assay type: in vivo
Method: In the first series of the in vivo experiments of mice, ketamine (100 mg/kg, i.p.) and xylazine (10 mg/kg, i.m.) were used for anesthesia according to the conventional protocol.

In the case of `NC(Cc1ccc(O)cc1)C(=O)NC1CCCCNC(=O)C(Cc2ccccc2)NC(=O)C(Cc2c[nH]c3ccccc23)NC1=O` [CYT-1010, H-Tyr-c-[D-Lys-Trp-Phe]], the “Effect of filtration on the inhibitory action of CYT-1010” value ([1]; 0.2 μm sterile filter, filtered vs non-filtered) is reported as “moderately decreases”, the “AUC of time course of percentage ear swelling” value ([1]; filtered (0.2 μm), 1 μg/kg i.v., control 50.04±6.96, NS) is reported as 51.47±6.93 units and the “AUC of time course of percentage ear swelling” value ([1]; filtered (0.2 μm), 10 μg/kg i.v., control 50.04±6.96, NS) is reported as 33.68±3.79 units. For the same compound, the “AUC of time course of percentage ear swelling” value ([1]; filtered (0.2 μm), 100 μg/kg i.v., control 50.04±6.96, NS) was 33.97±5.62 units, the “Effect on mustard oil-induced ear swelling” value ([1]; filtered, 1 μg/kg i.v.) was “did not influence ear swelling; also recorded: did not have any effect” and the “Effect on mustard oil-induced ear swelling” value ([1]; filtered, 10 μg/kg and 100 μg/kg i.v., 20 min) was “inhibited significantly”. For the same compound, the “Effect on mustard oil-induced ear swelling” value ([1]; filtered, two higher doses (10 and 100 μg/kg i.v.)) was “moderate inhibition”, the “Effect on mustard oil-induced ear swelling” value ([1]; non-filtered, 1 μg/kg i.v.) was “did not significantly diminish ear swelling” and the “AUC of time course of percentage ear swelling” value ([1]; non-filtered, 1 μg/kg i.v., control 44.02±6.97, NS) was 40.33±5.32 units. The “Extent of the inhibition of ear swelling” value ([1]; non-filtered, 10 μg/kg and 100 μg/kg i.v., both cases) was “about 50%”, the “Effect on mustard oil-induced ear swelling” value ([1]; non-filtered, 10 μg/kg and 100 μg/kg i.v., from 20 min until the 2 hour time point) was “significantly inhibited; also recorded: significantly reduced” and the “AUC of time course of percentage ear swelling” value ([1]; non-filtered, 10 μg/kg i.v., control 44.02±6.97, P<0.05) was 24.21±2.75 units. The “AUC of time course of percentage ear swelling” value ([1]; non-filtered, 100 μg/kg i.v., control 44.02±6.97, P<0.01) was 21.71±1.72 units, the “Mortality after i.v. injection” value ([2]; mice under ketamine (100 mg/kg, i.p.) and xylazine (10 mg/kg, i.m.) anesthesia, presumably respiratory depression) was “all the 10 mice died promptly” and the “Time to death after i.v. injection” value ([2]; mice under ketamine/xylazine anesthesia) was no more than 5 min. The “Survival after i.v. injection” value ([2]; mice under urethane (1.2 g/kg i.p.) anaesthesia, one death in the 1 μg/kg dose group) was “all mice survived except one”.
